From article PMC2577671, “Evaluation of Dimebon in cellular model of Huntington's disease” (Molecular Neurodegeneration, 2008)

Tests used:
[1] = molecular target: T1, Adrenergic beta2 (Homo sapiens, UniProt P07550); test: biochemical; design: MDS Pharma Lead Profiling screen, binding assays, per cent inhibition, duplicate
T1 construct: gene ADRB2
Protocol: (§1) The activity of Dimebon against selected set of biochemical targets was performed by MDS Pharma Services . The Dimebon was provided to MDS Pharma as dry powder, dissolved in DMSO and tested in 10 μM concentrations. The standard Lead Profiling + CYP450 screen was performed according to MDS Pharma specifications with additional custom-chosen targets added to the screen as indicated. To further understand potential mechanisms responsible for clinical effects of Dimebon, we evaluated Dimebon against a set of selected biochemical targets. Dimebon evaluation was performed by MDS Pharma Services . The standard Lead Profiling + CYP450 screen was performed with additional custom-selected targets added to the screen. The results of the screen obtained at 10 μM of Dimebon are provided as Additional File 3. […] Low affinity (50–60% inhibition) interactions were also observed for CYP450, 2C19 receptor, voltage-gated L-type Ca^2+ channel, Dopamine D4.2 receptor, and Serotonin 5-HT1 receptor. […] Supplementary file 1750-1326-3-15-S3.pdf: Additional file 3 The results of Dimebon screening against a selected set of biochemical targets. The complete results obtained by MDS Pharma with a selected list of biochemical targets using 10 μM of Dimebon as a probe. The Cat numbers refer to the MDS Pharma Services assay specification. The receptors and species are listed. Dimebon was tested at 10 μM concentratio in duplicate. The % inhibition by Dimebon is shown numerically and graphically for each receptor. Significant targets (defined as % inhibition > 50%) are highlighted in yellow. Click here for file

[2] = molecular target: T2, Glucocorticoid (Homo sapiens, UniProt P04150); test: biochemical; design: MDS Pharma Lead Profiling screen, binding assays, per cent inhibition, duplicate
T2 construct: gene NR3C1
Protocol: as §1

[3] = molecular target: T3, Muscarinic M3 (Homo sapiens, UniProt P20309); test: biochemical; design: MDS Pharma Lead Profiling screen, binding assays, per cent inhibition, duplicate
T3 construct: gene CHRM3
Protocol: as §1

[4] = molecular target: T4, Adrenergic beta1 (Homo sapiens, UniProt P08588); test: biochemical; design: MDS Pharma Lead Profiling screen, binding assays, per cent inhibition, duplicate
T4 construct: gene ADRB1
Protocol: as §1

[5] = molecular target: T5, Serotonin 5-HT4 (Cavia porcellus, UniProt O70528); test: biochemical; design: MDS Pharma Lead Profiling screen, binding assays, per cent inhibition, duplicate
T5 construct: gene HTR4
Protocol: as §1

[6] = molecular target: T6, Opiate kappa (OP2, KOP) (Homo sapiens, UniProt P41145); test: biochemical; design: MDS Pharma Lead Profiling screen, binding assays, per cent inhibition, duplicate
T6 construct: gene OPRK1
Protocol: as §1

[7] = molecular target: T7, Adenosine A1 (Homo sapiens, UniProt P30542); test: biochemical; design: MDS Pharma Lead Profiling screen, binding assays, per cent inhibition, duplicate
T7 construct: gene ADORA1
Protocol: as §1

[8] = molecular target: T8, Serotonin 5-HT1A (Homo sapiens, UniProt P08908); test: biochemical; design: MDS Pharma Lead Profiling screen, binding assays, per cent inhibition, duplicate
T8 construct: gene HTR1A
Protocol: as §1

[9] = molecular target: T9, α2A-Adrenergic receptor (Homo sapiens, UniProt P08913); test: biochemical; design: MDS Pharma Lead Profiling screen, binding assays, per cent inhibition, duplicate
T9 construct: gene ADRA2A
Protocol: as §1

[10] = molecular target: T10, Dopamine D1 (Homo sapiens, UniProt P21728); test: biochemical; design: MDS Pharma Lead Profiling screen, binding assays, per cent inhibition, duplicate
T10 construct: gene DRD1
Protocol: as §1

[11] = molecular target: T11, Melatonin MT1 (Homo sapiens, UniProt P48039); test: biochemical; design: MDS Pharma Lead Profiling screen, binding assays, per cent inhibition, duplicate
T11 construct: gene MTNR1A
Protocol: as §1

[12] = molecular target: T12, Tachykinin NK1 (Homo sapiens, UniProt P25103); test: biochemical; design: MDS Pharma Lead Profiling screen, binding assays, per cent inhibition, duplicate
T12 construct: gene TACR1
Protocol: as §1

[13] = molecular target: T13, Bradykinin B1 (Homo sapiens, UniProt P46663); test: biochemical; design: MDS Pharma Lead Profiling screen, binding assays, per cent inhibition, duplicate
T13 construct: gene BDKRB1
Protocol: as §1

[14] = molecular target: T14, Epidermal Growth Factor (EGF) (Homo sapiens, UniProt P00533); test: biochemical; design: MDS Pharma Lead Profiling screen, binding assays, per cent inhibition, duplicate
T14 construct: gene EGFR
Protocol: as §1

[15] = molecular target: T15, Neuropeptide Y Y2 (Homo sapiens, UniProt P49146); test: biochemical; design: MDS Pharma Lead Profiling screen, binding assays, per cent inhibition, duplicate
T15 construct: gene NPY2R
Protocol: as §1

[16] = molecular target: T16, Muscarinic M2 (Homo sapiens, UniProt P08172); test: biochemical; design: MDS Pharma Lead Profiling screen, binding assays, per cent inhibition, duplicate
T16 construct: gene CHRM2
Protocol: as §1

[17] = molecular target: T17, Transporter, Norepinephrine (NET) (Homo sapiens, UniProt P23975); test: biochemical; design: MDS Pharma Lead Profiling screen, binding assays, per cent inhibition, duplicate
T17 construct: gene SLC6A2
Protocol: as §1

[18] = molecular target: T18, Opiate delta (OP1, DOP) (Homo sapiens, UniProt P41143); test: biochemical; design: MDS Pharma Lead Profiling screen, binding assays, per cent inhibition, duplicate
T18 construct: gene OPRD1
Protocol: as §1

[19] = molecular target: T19, Sigma 1 (Homo sapiens, UniProt Q99720); test: biochemical; design: MDS Pharma Lead Profiling screen, binding assays, per cent inhibition, duplicate
T19 construct: gene SIGMAR1
Protocol: as §1

[20] = molecular target: T20, Nicotinic Acetylcholine alpha1, Bungarotoxin (Homo sapiens, UniProt P02708); test: biochemical; design: MDS Pharma Lead Profiling screen, binding assays, per cent inhibition, duplicate; conditions: read-out: % INHIBITION
T20 construct: gene CHRNA1

[21] = molecular target: T21, Histamine H1 receptor (Homo sapiens, UniProt P35367); test: MDS Pharma Services binding screen at […]
T21 construct: gene HRH1
T21 sequence (P35367 whole entry): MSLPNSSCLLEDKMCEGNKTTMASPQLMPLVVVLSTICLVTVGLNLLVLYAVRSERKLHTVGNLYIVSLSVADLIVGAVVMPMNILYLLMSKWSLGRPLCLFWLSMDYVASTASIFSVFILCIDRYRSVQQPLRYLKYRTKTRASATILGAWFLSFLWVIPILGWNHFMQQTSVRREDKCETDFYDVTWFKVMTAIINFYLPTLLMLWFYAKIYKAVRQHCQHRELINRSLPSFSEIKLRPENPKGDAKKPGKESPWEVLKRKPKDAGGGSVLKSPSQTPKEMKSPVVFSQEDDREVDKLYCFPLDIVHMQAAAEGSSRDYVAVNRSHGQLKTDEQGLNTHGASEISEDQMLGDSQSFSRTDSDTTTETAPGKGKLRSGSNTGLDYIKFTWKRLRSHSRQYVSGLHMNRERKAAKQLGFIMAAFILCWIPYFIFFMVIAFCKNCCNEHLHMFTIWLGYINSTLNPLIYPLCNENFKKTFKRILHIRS

T11 sequence (P48039 whole entry): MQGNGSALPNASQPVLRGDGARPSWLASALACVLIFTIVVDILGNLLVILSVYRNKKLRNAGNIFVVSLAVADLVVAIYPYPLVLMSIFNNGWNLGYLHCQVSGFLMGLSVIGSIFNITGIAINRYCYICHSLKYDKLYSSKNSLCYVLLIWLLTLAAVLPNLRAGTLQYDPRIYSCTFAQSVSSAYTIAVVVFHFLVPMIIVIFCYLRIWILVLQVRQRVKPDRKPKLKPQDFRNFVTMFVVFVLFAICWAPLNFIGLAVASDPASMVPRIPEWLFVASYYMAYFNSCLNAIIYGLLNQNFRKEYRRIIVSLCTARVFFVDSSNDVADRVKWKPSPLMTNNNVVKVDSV
T19 sequence (Q99720 whole entry): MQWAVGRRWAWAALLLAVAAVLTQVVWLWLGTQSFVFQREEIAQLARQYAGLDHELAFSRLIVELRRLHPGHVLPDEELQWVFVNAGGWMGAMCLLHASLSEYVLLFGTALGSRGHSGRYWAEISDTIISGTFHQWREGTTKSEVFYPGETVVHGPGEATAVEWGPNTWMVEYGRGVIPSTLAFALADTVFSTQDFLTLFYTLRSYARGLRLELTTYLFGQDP
T16 sequence (P08172 whole entry): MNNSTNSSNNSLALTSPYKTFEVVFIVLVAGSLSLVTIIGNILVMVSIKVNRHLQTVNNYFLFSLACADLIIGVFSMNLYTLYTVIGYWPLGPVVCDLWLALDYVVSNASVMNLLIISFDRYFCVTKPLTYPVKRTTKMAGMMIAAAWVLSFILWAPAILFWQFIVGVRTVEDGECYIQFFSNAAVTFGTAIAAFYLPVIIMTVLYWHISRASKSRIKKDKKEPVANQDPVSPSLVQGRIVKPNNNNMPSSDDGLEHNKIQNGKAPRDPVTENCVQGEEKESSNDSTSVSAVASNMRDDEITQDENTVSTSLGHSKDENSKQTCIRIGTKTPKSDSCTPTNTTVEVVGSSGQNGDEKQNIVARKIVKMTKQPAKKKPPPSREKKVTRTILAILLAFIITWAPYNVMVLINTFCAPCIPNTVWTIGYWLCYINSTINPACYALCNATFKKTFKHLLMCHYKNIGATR
T20 sequence (P02708 whole entry): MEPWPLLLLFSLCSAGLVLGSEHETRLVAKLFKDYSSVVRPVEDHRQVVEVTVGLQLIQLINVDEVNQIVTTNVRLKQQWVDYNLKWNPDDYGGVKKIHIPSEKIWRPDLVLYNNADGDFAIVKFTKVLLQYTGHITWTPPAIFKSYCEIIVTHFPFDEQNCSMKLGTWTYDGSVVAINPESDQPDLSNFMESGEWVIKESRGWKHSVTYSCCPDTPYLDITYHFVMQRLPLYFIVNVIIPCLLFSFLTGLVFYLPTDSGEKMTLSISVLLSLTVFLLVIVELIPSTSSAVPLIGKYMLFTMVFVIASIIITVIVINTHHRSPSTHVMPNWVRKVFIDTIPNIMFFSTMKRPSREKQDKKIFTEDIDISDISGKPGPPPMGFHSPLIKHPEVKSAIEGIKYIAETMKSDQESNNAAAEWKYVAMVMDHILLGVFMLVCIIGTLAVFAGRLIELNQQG
T17 sequence (P23975 whole entry): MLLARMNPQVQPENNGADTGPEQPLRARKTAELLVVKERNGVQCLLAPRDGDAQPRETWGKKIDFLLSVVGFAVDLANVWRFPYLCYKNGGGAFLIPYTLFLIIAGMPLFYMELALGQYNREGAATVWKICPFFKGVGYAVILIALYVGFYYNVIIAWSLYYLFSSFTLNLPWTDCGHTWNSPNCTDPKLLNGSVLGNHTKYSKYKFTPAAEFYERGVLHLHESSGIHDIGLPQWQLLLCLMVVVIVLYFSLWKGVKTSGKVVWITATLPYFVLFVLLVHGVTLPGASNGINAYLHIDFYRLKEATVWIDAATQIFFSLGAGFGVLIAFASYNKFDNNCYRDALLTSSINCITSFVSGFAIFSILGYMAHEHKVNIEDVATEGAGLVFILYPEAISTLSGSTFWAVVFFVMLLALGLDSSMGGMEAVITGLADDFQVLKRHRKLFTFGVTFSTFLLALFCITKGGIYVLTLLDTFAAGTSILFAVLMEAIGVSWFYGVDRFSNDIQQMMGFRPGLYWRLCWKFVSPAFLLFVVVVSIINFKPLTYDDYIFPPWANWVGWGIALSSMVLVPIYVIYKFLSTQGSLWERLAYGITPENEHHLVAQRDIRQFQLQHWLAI
T9 sequence (P08913 whole entry): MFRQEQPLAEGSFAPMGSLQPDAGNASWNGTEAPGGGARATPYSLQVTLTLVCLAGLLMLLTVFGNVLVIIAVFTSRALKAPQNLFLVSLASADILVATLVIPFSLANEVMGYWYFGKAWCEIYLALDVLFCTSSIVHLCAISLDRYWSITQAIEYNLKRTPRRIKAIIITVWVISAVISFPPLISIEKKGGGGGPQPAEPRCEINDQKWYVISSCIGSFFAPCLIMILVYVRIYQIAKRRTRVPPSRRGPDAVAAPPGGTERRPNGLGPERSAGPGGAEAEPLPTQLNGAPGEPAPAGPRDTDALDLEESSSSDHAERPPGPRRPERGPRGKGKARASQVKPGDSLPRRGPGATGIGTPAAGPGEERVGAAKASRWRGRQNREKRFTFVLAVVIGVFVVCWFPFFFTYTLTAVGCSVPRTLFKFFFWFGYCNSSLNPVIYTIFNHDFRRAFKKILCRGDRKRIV
T14 sequence (P00533 whole entry): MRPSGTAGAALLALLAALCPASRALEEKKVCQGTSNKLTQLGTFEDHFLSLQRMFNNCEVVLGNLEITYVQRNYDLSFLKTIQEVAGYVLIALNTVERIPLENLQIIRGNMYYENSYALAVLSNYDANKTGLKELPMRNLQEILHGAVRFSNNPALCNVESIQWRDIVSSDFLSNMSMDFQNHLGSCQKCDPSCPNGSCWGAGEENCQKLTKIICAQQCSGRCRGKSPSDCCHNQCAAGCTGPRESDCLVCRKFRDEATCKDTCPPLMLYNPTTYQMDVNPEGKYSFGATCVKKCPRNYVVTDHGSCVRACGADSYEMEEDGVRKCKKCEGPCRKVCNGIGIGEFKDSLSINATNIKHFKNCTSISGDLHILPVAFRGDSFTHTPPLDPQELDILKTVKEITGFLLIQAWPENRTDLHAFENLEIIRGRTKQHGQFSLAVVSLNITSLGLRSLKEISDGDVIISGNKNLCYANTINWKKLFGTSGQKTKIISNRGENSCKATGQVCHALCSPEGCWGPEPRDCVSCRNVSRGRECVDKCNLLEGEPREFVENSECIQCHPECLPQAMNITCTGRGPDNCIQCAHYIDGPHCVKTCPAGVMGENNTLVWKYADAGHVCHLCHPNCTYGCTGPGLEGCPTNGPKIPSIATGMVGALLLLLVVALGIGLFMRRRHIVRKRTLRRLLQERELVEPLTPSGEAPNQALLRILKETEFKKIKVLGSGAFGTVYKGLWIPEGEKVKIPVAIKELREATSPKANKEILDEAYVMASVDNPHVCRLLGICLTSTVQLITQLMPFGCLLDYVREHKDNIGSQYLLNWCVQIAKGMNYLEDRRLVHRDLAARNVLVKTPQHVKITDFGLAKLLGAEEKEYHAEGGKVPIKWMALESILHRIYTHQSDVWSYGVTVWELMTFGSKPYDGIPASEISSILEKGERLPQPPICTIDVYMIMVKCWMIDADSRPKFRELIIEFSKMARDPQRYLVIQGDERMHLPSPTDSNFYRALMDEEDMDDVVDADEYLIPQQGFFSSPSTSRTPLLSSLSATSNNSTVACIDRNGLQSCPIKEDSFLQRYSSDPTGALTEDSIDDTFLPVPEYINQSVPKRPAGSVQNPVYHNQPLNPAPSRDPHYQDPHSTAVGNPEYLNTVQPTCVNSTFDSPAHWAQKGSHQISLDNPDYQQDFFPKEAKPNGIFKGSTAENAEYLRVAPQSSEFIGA
T1 sequence (P07550 whole entry): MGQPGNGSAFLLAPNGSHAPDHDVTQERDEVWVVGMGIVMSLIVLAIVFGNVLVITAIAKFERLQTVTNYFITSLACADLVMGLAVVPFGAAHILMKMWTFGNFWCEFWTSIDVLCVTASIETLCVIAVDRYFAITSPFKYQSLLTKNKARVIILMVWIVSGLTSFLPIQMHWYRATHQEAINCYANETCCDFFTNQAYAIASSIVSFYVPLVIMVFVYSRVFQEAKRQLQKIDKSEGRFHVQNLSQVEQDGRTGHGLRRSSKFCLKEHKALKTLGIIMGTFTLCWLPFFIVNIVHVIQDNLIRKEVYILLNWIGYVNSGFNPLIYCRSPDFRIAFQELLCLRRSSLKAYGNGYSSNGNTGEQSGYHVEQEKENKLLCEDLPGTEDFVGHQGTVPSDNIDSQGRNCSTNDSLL

Cc1ccc2c(c1)c1c(n2CCc2ccc(C)nc2)CCN(C)C1 [Dimebon, 2,3,4,5-Tetrahydro-2,8-dimethyl-5-(2-(6-methyl-3-pyridyl)ethyl)-1H-pyrido(4,3-b)indole]
inhibition at 10 µM [1]: 14% | inhibition at 10 µM [2]: 3% | inhibition at 10 µM [3]: 7% | inhibition at 10 µM [4]: -7% | inhibition at 10 µM [5]: 17% | inhibition at 10 µM [6]: 16% | inhibition at 10 µM [7]: 0% | inhibition at 10 µM [8]: 22% | inhibition at 10 µM [9]: 97% | inhibition at 10 µM [10]: 70% | inhibition at 10 µM [11]: 3% | inhibition at 10 µM [12]: 20% | inhibition at 10 µM [13]: -9% | inhibition at 10 µM [14]: 1% | inhibition at 10 µM [15]: -5% | inhibition at 10 µM [16]: 8% | inhibition at 10 µM [17]: 20% | inhibition at 10 µM [18]: 0% | inhibition at 10 µM [19]: 28% | inhibition at 10 µM [20]: 1% | inhibition at 10 µM [21]: > 90%
